“And” between values parts separate entries of the source, which are not always exact repeats. Identical values can stand only once.
Experiments:
in vitro [1] = details: human, % cell viability, M2 HAE, 72 h
[2] = tested on: SARS-CoV-2-Nluc (WA1/2020-nano luciferase); assay: microbe, parasite or virus in culture; type: cell-based
in vitro [3] = details: female, human, % cell viability, DF2 HAE, 33.333 µM, 72 h
in vitro [4] = details: hamster
in vitro [5] = details: human, % cell viability
[6] = female, ferret, in vivo, iv
in vitro [7] = details: human, % cell viability; remark: listed apart in the source
HCT-8 cells = assay: Cytotoxicity assay (PrestoBlue), HCT-8; details: HCT-8, 72 h
“F2” primary HAE cells = assay: Cytotoxicity assay (PrestoBlue), “F2” HAE; details: 72 h; for % cell viability: F2 HAE
in vitro [8] = details: human
in vitro [9] = details: human, 72 h
in vitro [10] = details: African green monkey
HEp-2 cells = assay: Cytotoxicity assay (PrestoBlue), HEp-2; details: 72 h
in vitro [11] = details: human, % cell viability, M6 HAE, 72 h
“F3” primary HAE cells = assay: Cytotoxicity assay (PrestoBlue), “F3” HAE; details: F3 HAE, 72 h

Structure (SMILES): CCC(CC)COC(=O)[C@H](C)N[P@](=O)(OC[C@H]1O[C@@](C#N)(c2ccc3c(N)ncnn23)[C@H](O)[C@@H]1O)Oc1ccccc1 [remdesivir]
- viability at 100 µM (in vitro [1]; 100 µM): 56%
- viability at 0.046 µM (in vitro [1]; male, 0.046 µM): 85%
- A549-hACE2 SARS-CoV-2 Nluc (EC50 determination), normalized signal ([2]; Conc 0.005 µM, replicate values of the experiments): 78.71 and 115.29 and 114.83 and 141.39 and 91.95 and 93.98 and 92.17 and 82.76 and 114.48 and 78.49 and 78.52 and 118.54
- EC50 ([2]; Severe acute respiratory syndrome coronavirus 2, WA1/2020-nano luciferase, A549-ACE2, mean ± SD): 0.08 µM
- viability at 33.333 µM (in vitro [3]): 86%
- CC50 (in vitro [4]): > 100 µM
- viability at 1.235 µM (in vitro [4]; % cell viability, BHK-21, 1.235 µM, 72 h): 87%
- viability at 3.704 µM (in vitro [4]; % cell viability, BHK-21, 3.704 µM, 72 h): 93%
- viability at […] (in vitro [5]; female): 91%
- viability at 0.046 µM (in vitro [5]; female, F3 HAE, 0.046 µM, 72 h): 75%
- viability at 33.333 µM (in vitro [5]; female, F3 HAE, 33.333 µM, 72 h): 84%
- viability at 100 µM (in vitro [5]; F3 HAE, 100 µM, 72 h): 51%
- lung GS-443902 [6]: 1.28 nmol/g
- lung total nuc [6]: 2.96 nmol/g
- viability at […] (in vitro [7]): 89%
- viability at 1.235 µM (in vitro [7]; HEp-2, 1.235 µM, 72 h): 83%
- viability at 33.333 µM (in vitro [7]; HEp-2, 33.333 µM, 72 h): 64%
- viability at 100 µM (in vitro [7]; HEp-2, 100 µM, 72 h): 31%
- CC50 (HCT-8 cells): 36.4 µM
- % cell viability (“F2” primary HAE cells; 0.046 µM): 85% and 82%
- % cell viability (“F2” primary HAE cells; 33.333 µM): 77% and 71%
- % cell viability (“F2” primary HAE cells; 100 µM): 47%
- CC50 (“F2” primary HAE cells; “F2” HAE): 85.5 µM
- viability at 0.046 µM (in vitro [8]; % cell viability, HCT-8, 0.046 µM, 72 h): 76%
- viability at 33.333 µM (in vitro [8]; % cell viability, HCT-8, 33.333 µM, 72 h): 51%
- viability at 100 µM (in vitro [8]; % cell viability, HCT-8, 100 µM, 72 h): 15%
- CC50 (in vitro [8]; CC50, HCT-8, 72 h): 36.4 µM
- viability at 0.046 µM (in vitro [9]; female, % cell viability, F2 HAE, 0.046 µM): 81%
- viability at 33.333 µM (in vitro [9]; female, % cell viability, F2 HAE, 33.333 µM): 72%
- viability at 100 µM (in vitro [9]; % cell viability, F2 HAE, 100 µM): 46%
- CC50 (in vitro [9]; CC50, “F2” HAE): 85.5 µM
- CC50 (in vitro [10]): > 100 µM
- viability at […] (in vitro [10]; % cell viability): 79%
- viability at 3.704 µM (in vitro [10]; % cell viability, VeroE6, 3.704 µM, 72 h): 92%
- % cell viability (HEp-2 cells; HEp-2, 0.046 µM, 0.046 µM): 45% and 47% and 73%
- % cell viability (HEp-2 cells; HEp-2, 1.235 µM, 1.235 µM): 86% and 94%
- % cell viability (HEp-2 cells; HEp-2, 3.704 µM, 3.704 µM): 96%
- % cell viability (HEp-2 cells; HEp-2, 33.333 µM, 33.333 µM): 51% and 66%
- % cell viability (HEp-2 cells; HEp-2, 100 µM, 100 µM): 24%
- viability at 100 µM (in vitro [11]; 100 µM): 89%
- viability at 0.046 µM (in vitro [11]; male, 0.046 µM): 90%
- viability at 1.235 µM (in vitro [11]; male, 1.235 µM): 87%
- viability at 33.333 µM (in vitro [11]; male, 33.333 µM): 96%
- % cell viability (“F3” primary HAE cells; 0.046 µM): 76% and 79%
- % cell viability (“F3” primary HAE cells; 33.333 µM): 88% and 89%
- % cell viability (“F3” primary HAE cells; 100 µM): 52% and 54%

— article PMC8571282 (Nature Communications, 2021)
